What was measured:
[1] = system: blood pressure in the hypertensive rat; assay: Effects on systolic blood pressure in the hypertensive rat; assay type: in vivo; set-up: key: 0: Not significant at any time interval; 1: Significant at one time interval; 2: Significant at two time intervals; conditions: 1 mg/kg intraperitoneal; 2, 4, 6 and 9 hours
Protocol: The acute anithypertensive activity of test compounds was determined in rats made hypertensive by the procedure of Grollman (Proc. Soc. Exper Biol. Med., 57: 102 [1944]). Female rats weighing between 60 and 100 g were anesthetized with ether, the right kidney approached through a flank retroperitoneal incision, decapsulated and tied with a figure-of-eight-ligature. The animals were left to recover and two weeks later were again anesthetized and the contralateral kidney removed. Four weeks after the second operation the rats were subjected to indirect blood pressure measurements and those showing systolic pressure values greater than 160 mmHg were selected for drug testing.
Blood pressure was measured in the tail with an inflatable occluding cuff placed at the base of the extremity and a pulse detector located distally. The cuff was inflated to approximately 300 mmHg and was slowly deflated until pulsations appeared, indicating the level of systolic pressure; diastolic pressure was not recorded by this procedure. All measurements were carried out in unanesthetized, unsedated animals maintained in a warm environment during the recording procedure and for at least 6 hours before. In all cases, three pressure readings were obtained in succession and mean values were calculated thereof.
Experiments were carried out in groups of five hypertensive rats in which systolic pressure was determined immediately before and 2, 4, 6 and 9 hours after intraperiotoneal administration of the test compound at a dose of 1 mg/kg. Drugs were diluted from stock solutions with phosphate buffer (Lee et. al., Prostaglandins, 29 [1973]), so as to inject this quantity in a volume of 1 ml/kg. Changes from control blood pressure values were calculated for each interval both in mmHg and in percent, and evaluated for significance by means of Wilcoxon's signed rank test (Wilcoxon, R. and Wilcox, R. A., "Some Rapid Approximate Statistical Procedures," Lederle Laboratories, Pearl River [1964]).

[2] = system: gastric secretion in the rat; assay: Effects on gastric secretion in the rat; assay type: in vivo; conditions: for GAS value, carbinol versus methyl ester analogue: comparison in words
Protocol: A procedure based on that described by Lipman, W. (J. Pharm. Pharmacol., 21: 335 [1968]) was used to assess the influence of test compounds on gastric secretion. Rats of one sex weighing 150 to 200 g were randomly divided into groups of six animals each and fasted for 48 hours previous to the experiments, water being available ad libitum. The animals were anesthetized with ether, the abdomen opened through a midline incision, and the pylorus ligated. Test compounds were diluted from stock solution so as to administer a dose of 1.5 mg/kg in a volume equivalent to 1 ml/kg. Subcutaneous injections were applied immediately after surgery and again 2 hours later, so that a total dose of 3.0 mg/kg was administered. Dilutions were made with phosphate buffer (pH 7.38) as recommended by Lee et al. (Prostaglandins, 3: 29 [1973]) in order to insure adequate stability of drugs at the subcutaneous depot. Each compound was tested in one group of rats; an additional control group received only the vehicle.
Four hours after pyllric ligation the animals were killed with ether, the cardias ligated, and the stomachs removed. The volume of gastric secretion was measured and the contents centrifuged at 5000 rpm for 10 minutes. Total acid in the supernatant was titrated against a 0.1 N sodium hydroxide solution and the amount expressed in mEq.
Volume and total acid values of the treated group were compared with those of the controls […]. Antisecretory activity was scored according to the following scale: […]

guinea pig trachea = assay: Effects on the guinea pig trachea in vitro; assay type: cell-based; conditions: comparison in words
Protocol: A male guinea pig weighing 200-500 g was killed by a blow on the head. A 20 mm length of the trachea was dissected from the animal, transferred to a petri dish containing Krebs' solution (aerated with 95% O2 and 5% CO2 at 37° C.), and cut longitudinally opposite the tracheal muscle. The tissue was then cut transversely three quarters of the distance across, a second cut in the opposite direction (again three quarters of the distance across the tissue) was made and the procedure was continued for the whole tissue. The ends of the trachea were pulled to form a zig-zig shaped strip. The tracheal strip used in the experiment was approximately 30 mm when extended under 0.25-0.5 g load in the tissue bath. Cotton thread was tied to one end of the tissue, and linen thread to the other. It was attached via the linen thread to a glass hook in a 5 ml isolated tissue bath containing Krebs' solution (37° C., aerated with a mixture of 95% O2 and 5% CO2). The opposite end was attached via cotton to an isotonic Harvard transducer (Model 386 Heart/Smooth Muscle Transducer, Harvard Apparatus). The load on the transducer lever was small, usually 0.3 g, with a range of 0.25-0.5 g, and the magnification high, 80 fold using an appropriate twin-channel pen recorder. A minimum of thirty minutes was allowed before applying a test compound to the tissue. Test compounds were then applied (in volumes of 0.5 ml) at thirty minute intervals, being in contact with the tissue for five minutes followed by an overflow washout time of twenty seconds.
Prostaglandin E1, at a bath concentration of 0.1 mcg/ml, was then tested repeatedly on two such strips, obtained from two different animals, until two responses (the values of which are recorded) differing by no more than 25% occur. A test compound was then added to the same two strips at bath concentrations of 0.01, 0.1, 1.0, and 10.0 mcg/ml and the effects of the compound were recorded. After the test compound had been evaluated at the highest concentration, PGE1 was retested at 0.1 mcg/ml (and the value of the response recorded) to insure that the viability of the strips was retained during the experiment. The mean of the effects of the test compound on the two strips was then calculated for each concentration, and, biased on the resulting values, an activity value was assigned as follows: […]

| Structure (SMILES) | Blood Pressure Hypertensive Rat: activity value [1] | GAS value, carbinol versus methyl ester analogue [2] | Guinea pig trachea value, carbinol versus methyl ester analogue (guinea pig trachea) | GAS activity ([2]; result in words) |
| --- | --- | --- | --- | --- |
| CC1CCCC(O)(C/C=C/[C@H]2[C@H](O)CC(=O)[C@@H]2CCCCCCCO)C1 (stereo partly drawn) [TR 4851, 16, 20-Methano-18RS-methyl-1, 11α, 16RS-trihydroxyprost-13E-en-9-one] | 0 |  |  |  |
| CCCCC(O)C/C=C/[C@H]1[C@H](O)CC(=O)[C@@H]1CCCCCCCO (stereo partly drawn) [TR 4706, 1,11α,16RS-trihydroxyprost-13E-en-9-one] | 0 | the same | the same |  |
| O=C1C[C@@H](O)[C@H](/C=C/CC2(O)CC3CCCC32)[C@H]1CCCCCCCO (stereo partly drawn) [TR 4799, 16, 18-Methano-17, 20-methano-1, 11α, 16RS-trihydroxyprost-13E-en-9-one] | 0 |  |  |  |
| O=C1C[C@@H](O)[C@H](/C=C/CC2(O)CCCCC2)[C@H]1CCCCCCCO [TR 4703, 16, 20-Methano-1, 11α, 16-trihydroxyprost-13E-en-9-one] | 0 |  |  |  |
| CCCCC(C)(O)C/C=C/[C@H]1[C@H](O)CC(=O)[C@@H]1CCCCCCCO (stereo partly drawn) [TR 4698, 16-methyl-1,11α,16RS-trihydroxyprost-13E-en-9-one] | 1 | the same | the same |  |
| CCCC(C)C(O)C/C=C/[C@H]1[C@H](O)CC(=O)[C@@H]1CCCCCCCO (stereo partly drawn) [TR 4749, 1, 11α, 16RS-trihydroxy-17RS-methylprost-13E-en-9-one] | 0 | lower | lower |  |
| COC(=O)CCCCCC[C@H]1C(=O)C[C@@H](O)[C@@H]1/C=C/[C@H]1CCCC[C@@H]1O [TR 4767, Methyl 15R, 20-cyclo-11α, 16-trans-dihydro-9-oxoprost-13E-en-1-oate] | 0 |  |  |  |
| COC(=O)CCCCCC[C@H]1C(=O)C[C@@H](O)[C@@H]1/C=C/CC1(O)CC2CCC1C2 (stereo partly drawn) [TR 4883, Methyl 11α,16RS-dihydroxy-16,20-methano-17,20-methano-9-oxoprost-13E-en-1-oate] | 1 |  |  |  |
| CCCC(C)(C)C(O)C/C=C/[C@H]1[C@H](O)CC(=O)[C@@H]1CCCCCCCO (single isomer, unassigned) [TR 4752, 1, 11α, 16R or S-trihydroxy-17-dimethylprost-13E-en-9-one] | 0 |  |  | no GAS activity |
| COC(=O)CCCCCC[C@H]1C(=O)C[C@@H](O)[C@@H]1/C=C/CC1(O)CCCCC1 [TR 4717, Methyl 11α, 16RS-dihydroxy-16, 20-methano-9-oxoprost-13E-en-1-oate] | 0 |  |  |  |
| COC(=O)CCCCCC[C@H]1C(=O)C[C@@H](O)[C@@H]1/C=C/CC1(O)CC2C=CCC21 (stereo partly drawn) [TR 4800, Methyl 11α, 16RS-dihydroxy-16, 18-methano-17, 20-methano-9-oxoprosta-13E, 19-dien-1-oate] | 0 |  |  |  |
| CCCC(C)C(O)C/C=C/[C@H]1[C@H](O)CC(=O)[C@@H]1CCCCCCC(=O)OC (stereo partly drawn) [TR 4814, Methyl 11α, 16RS-dihydroxy-17-methyl-9-oxoprost-13E-oate, reference compound] | 1 |  |  |  |
| COC(=O)CCCCCC[C@H]1C(=O)C[C@@H](O)[C@@H]1/C=C/CC1(O)CC2CCCCC21 (stereo partly drawn) [TR 4808, Methyl 11α, 16RS-dihydroxy-17, 20-ethano-16, 18-methano-9-oxoprost-13E-en-1-oate] | 0 |  |  |  |
